Data reported in patent publication US11071731B2, “Allosteric modulators of the mu opioid receptor” (Chiromics, LLC, priority 2017, dated 2021).
Where two headings read alike, the source gives them in different places.

Assays:
mu opioid receptor (MOR) [1] = biological target: T1, mu opioid receptor (MOR) (Homo sapiens, UniProt P35372); test: PathHunter β-arrestin recruitment assay, PAM mode with EC20 endomorphin-1; assay type: cell-based
Summary of the method: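 Enzyme fragment complementation read-out: β-gal ED fragment fused to receptor, EA fused to β-arrestin, recruitment restoring β-gal activity detected by chemiluminescence. EC50 and percent maximal response derived for each compound.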

mu opioid receptor (MOR) [2] = biological target: T1, mu opioid receptor (MOR); test: Hit Hunter cAMP signaling assay (adenylyl cyclase inhibition), PAM mode with EC20 endomorphin-1; assay type: cell-based
[3] = biological target: T2, mu opioid receptor subtype OPRM1 (Homo sapiens, UniProt P35372); test: β-arrestin recruitment assay, antagonist format; assay type: cell-based; conditions: Table 18
Procedure: Beta-Arrestin Pathway: The PathHunter β-arrestin assay monitors the activation of a GPCR in a homogenous, non-imaging assay format using a technology developed by DiscoveRx called Enzyme Fragment Complementation (EFC) with beta-galactosidase (β-Gal) as the functional reporter. […] EA is fused to β-Arrestin and ED is fused to the GPCR of interest. When the GPCR is activated and β-arrestin is recruited to the receptor, ED and EA complementation occurs, restoring β-gal activity, which is measured using chemiluminescent PathHunter Detection Reagents.
Similar results were obtained when agonist and antagonist activity were assayed using cAMP signaling as the readout.

MOR [4] = biological target: T3, MOR (Homo sapiens, UniProt P35372); test: cell-based; conditions: EC20 morphine agonism of MOR
MOR [5] = biological target: T3, MOR; test: cell-based; conditions: EC20 morphine agonism of MOR; remark: listed apart in the source
MOR [6] = biological target: T3, MOR; test: cell-based; conditions: EC20 Oxycodone agonism of MOR
MOR [7] = biological target: T3, MOR; test: cell-based; conditions: EC20 Oxycodone agonism of MOR; remark: listed apart in the source
MOR [8] = biological target: T3, MOR; assay type: cell-based; conditions: β-arrestin; EC20 EM2 agonism of MOR
MOR [9] = biological target: T3, MOR; assay type: cell-based; conditions: cAMP; EC20 EM2 agonism of MOR
MOR [10] = biological target: T3, MOR; assay type: cell-based
MOR [11] = biological target: T3, MOR; assay type: cell-based; remark: listed apart in the source
[12] = biological target: T2, mu opioid receptor subtype OPRM1; test: cell-based
[13] = biological target: T2, mu opioid receptor subtype OPRM1
OPRM1 receptor = OPRM1 receptor (Homo sapiens, UniProt P35372)
Chain of OPRM1 receptor (P35372 whole entry): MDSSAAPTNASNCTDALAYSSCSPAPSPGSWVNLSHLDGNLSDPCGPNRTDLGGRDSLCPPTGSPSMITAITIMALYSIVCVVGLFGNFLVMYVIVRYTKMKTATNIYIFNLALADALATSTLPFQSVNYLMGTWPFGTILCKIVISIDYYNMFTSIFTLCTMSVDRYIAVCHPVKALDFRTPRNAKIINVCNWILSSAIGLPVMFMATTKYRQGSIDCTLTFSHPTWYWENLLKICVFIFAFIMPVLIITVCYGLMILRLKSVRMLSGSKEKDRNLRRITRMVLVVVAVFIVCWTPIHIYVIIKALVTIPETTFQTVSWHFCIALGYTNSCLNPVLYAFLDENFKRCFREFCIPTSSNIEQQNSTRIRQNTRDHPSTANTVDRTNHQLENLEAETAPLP

T1 sequence (P35372 whole entry, the tested form may be a part): as the sequence (P35372 whole entry) above
T3 sequence (P35372 whole entry): as above
T2 sequence (P35372 whole entry, the tested form may be a part): as the sequence (P35372 whole entry) above

COc1ccc(C2CCCCN2S(=O)(=O)c2ccc(Cl)cc2)cc1Br (single isomer, unassigned) [compound 6]
allosteric activity for β-arrestin recruitment (mu opioid receptor (MOR) [1]; EC20 endomorphin-1 concentration of 4.5 nM): moderate positive allosteric effect
β-arr Max. Resp. (mu opioid receptor (MOR) [1]; maximal response for β-arrestin recruitment): F (F represents a maximal response of > 60%)
EC50 (mu opioid receptor (MOR) [1]; β-arrestin recruitment, read-out: β-arr. EC50): 700 to 2100 nM
Max. Response (mu opioid receptor (MOR) [1]; β-arrestin, EC20 EM-1 agonism of MOR): 173
EC50 (mu opioid receptor (MOR) [1]; β-arrestin, EC20 EM-1 agonism of MOR, read-out: RC50 (the source's name)): 2520 nM
allosteric activity for cAMP signaling (mu opioid receptor (MOR) [2]; EC20 endomorphin-1 concentration of 0.45 nM): moderate positive allosteric effect
EC50 (mu opioid receptor (MOR) [2]; RC50, cAMP, EC20 EM-1 agonism of MOR): 500 nM
EC50 (mu opioid receptor (MOR) [2]; cAMP EC50, adenylyl cyclase inhibition): < 700 nM
Max. Response (mu opioid receptor (MOR) [2]; cAMP, EC20 EM-1 agonism of MOR): 93
cAMP Max. Resp. (mu opioid receptor (MOR) [2]; maximal response for adenylyl cyclase inhibition): F (F represents a maximal response of > 60%)
IC50 [3]: > 25 µM
EC50 (MOR [4]; RC50, β-arrestin): 8250 nM
Max. Response (MOR [4]; β-arrestin): 421
EC50 (MOR [5]; RC50, cAMP): 2960 nM
Max. Response (MOR [5]; cAMP): 93
EC50 (MOR [6]; RC50, β-arrestin): 4830 nM
Max. Response (MOR [6]; β-arrestin): 384
EC50 (MOR [7]; RC50, cAMP): 320 nM
Max. Response (MOR [7]; cAMP): 90
Max. Response (MOR [8]): 117
Max. Response (MOR [9]): 91
factor of increase of the affinity (α) of oxycodone (MOR [10]; β-arrestin): 2
factor of increase of the efficacy (β) of oxycodone (MOR [10]; β-arrestin): 80
shift in the potency of oxycodone (MOR [10]; β-arrestin recruitment): concentration-dependent and saturable leftward shifts
shift in the potency of oxycodone (MOR [11]; adenylyl cyclase inhibition): concentration-dependent and saturable leftward shifts
factor of increase of the affinity (α) of oxycodone (MOR [11]; cAMP): 4
factor of increase of the efficacy (β) of oxycodone (MOR [11]; cAMP): 4
effective potency for PAM effect (MOR [11]; cAMP signal, oxycodone): 234 nM
EC50 [12]: > 25000 nM

COc1ccc2c3c1O[C@H]1C(=O)CC[C@@]4(O)[C@@H](C2)N(C)CC[C@]314 [oxycodone]
% Max. Resp., β-arrestin [13]: 102.03%
% Max. Resp., cAMP (OPRM1 receptor): 100.62%
